The test system of data set [1] is Rattus norvegicus.
The subject of data set [2] is Gallus gallus. Conditions: oral, diet.
Where [3] appears, read: subchronic, duration: 13 weeks, oral, diet, M/F, no effects.
Where [4] appears, read: subchronic, duration: 90 days, oral, diet, M/F, Sprague-Dawley, no effects.
[5] abbreviates: subchronic, duration: 42 days, oral, gavage, M/F, body weight.
Setting [6] is: subchronic, duration: 90 days, oral.

`SCCc1cnccn1` [Pyrazineethanethiol]: the NOAEL in data set [1] (setting [3]) was 1.63 mg/kg-day. Consider `CSCSCSC` [2,4,6-Trithiaheptane], for which the no observed adverse effect level (NOAEL) in data set [1] (setting [4]) was determined as 0.2 mg/kg-day. In turn, `C=CCSCC=C` [1-Propene, 3,3'-thiobis-] came in with a no observed adverse effect level (NOAEL) in data set [1] (chronic, duration: 14 weeks, oral, gavage, M/F, Wistar, no effects) of 250 mg/kg-day.

Regarding `COc1ccc(C=O)cc1` [4-Methoxybenzaldehyde], the no-observed-adverse-effect level (NOAEL) in data set [1] (setting [5]) worked out at 20 mg/kg-day.

`CNc1ccccc1C(=O)OC` [Methyl N-methylanthranilate]: the NOAEL in data set [1] (subchronic, duration: 90 days, organ weight) was found to be 20 mg/kg-day.

For the molecule `CC(=O)C1=NCCS1` [2-Acetyl-2-thiazoline], the NOAEL in data set [1] (subchronic, duration: 90 days) came to 1.8 mg/kg-day; in data set [1] (subchronic, duration: 90 days, oral, diet, M/F, no effects), 1.8 mg/kg-day.

In turn, `O=C1O[C@H]([C@H](O)CO)C([O-])=C1O.[Na+]` [Sodium erythorbate] yielded an NOAEL in data set [1] (chronic, duration: 2 years, oral, drinking water, M/F, Fischer 344, body weight) of 650 mg/kg-day. In data set [1] (chronic, duration: 14 weeks, oral, gavage, M/F, body weight), `C/C=C/C=C/C=O` [(2E,4E)-2,4-Hexadienal] showed an NOAEL of 15 mg/kg-day.

For `CCC(CC)C(=O)O` [2-Ethylbutyric acid], the NOAEL in data set [1] (reproduction developmental, duration: 10 days, oral, gavage, F, Sprague-Dawley, no effects) is 200 mg/kg-day; in data set [1] (reproduction developmental, duration: 10 days, oral, gavage, F, no effects), 200 mg/kg-day. Regarding `CC1OCCC12SC1CCOC1(C)S2` (stereo not drawn), the NOAEL in data set [1] (subchronic, duration: 90 days, oral, diet, M, hematological) was found to be 25 mg/kg-day. In data set [1] (subchronic, duration: 13 weeks, oral, gavage), `CC(C)SSSC(C)C` [Diisopropyl trisulfide] gave an NOEL of 4.8 mg/kg-day. In data set [1] (subchronic, duration: 90 days, oral, diet, M/F, Fischer 344, hematological), `CCOC(OCC)c1ccco1` [Furan, 2-(diethoxymethyl)-] had an NOEL of 54 mg/kg-day. The molecule `CC(C)(C)c1ccc(CC#N)cc1` [(4-tert-Butylphenyl)acetonitrile] yielded a no observed adverse effect level (NOAEL) in data set [1] (short-term, duration: 28 days) of 6.5 mg/kg-day. `C=CCSC(=O)CCCCC` [Allyl thiohexanoate]: the NOAEL in data set [1] (setting [6]) was 6.63 mg/kg-day. In the case of `NC(=O)Cc1cccc2ccccc12` [1-Naphthaleneacetamide], the NOAEL in data set [1] (developmental, development) was 15 mg/kg-day; in data set [1] (subchronic, duration: 90 days, oral, hematological), 10 mg/kg-day. `C=CC(C)(O)C/C=C/C(=C)C` (stereo not drawn) [(E)-3,7-Dimethylocta-1,5,7-trien-3-ol] registered an NOAEL in data set [1] (setting [4]) of 44 mg/kg-day. `C[C@@H]1O[C@@H](O[C@H]2[C@H](Oc3cc(O)c4c(c3)O[C@H](c3ccc(O)cc3)CC4=O)O[C@H](CO)[C@@H](O)[C@@H]2O)[C@H](O)[C@H](O)[C@H]1O` [Naringin] gave an NOAEL in data set [1] (chronic, duration: 400 days, oral, diet, food consumption) of 1250 mg/kg-day.

As for `COC(=O)CSCc1ccco1` [Methyl {[(furan-2-yl)methyl]sulfanyl}acetate], the NOAEL in data set [1] (subchronic, duration: 90 days, oral, diet, M/F, clinical chemistry) is 5.78 mg/kg-day.

For the molecule `CC(O)C(=O)NCCc1ccc(O)cc1` (stereo not drawn) [2-Hydroxy-N-[2-(4-hydroxyphenyl)ethyl]propanimidic acid], in data set [1] (subchronic, duration: 90 days, oral, M/F), the NOAEL came to 8.4 mg/kg-day.

In the case of `CC(=O)NCCS(=O)(=O)O.CC(=O)NCCS(=O)(=O)O.[Mg]`, the NOAEL in data set [1] (subchronic, duration: 13 weeks, oral, gavage, M/F, Crj:CD, no effects) turned out to be 1000 mg/kg-day. With `C=O` [Formaldehyde], the LEL in data set [2] (short-term, duration: 28 days, no effects) came to 990 mg/kg-day. This molecule also registered an NOAEL in data set [1] (chronic, duration: 104 weeks, oral, drinking water, M/F, Wistar, histopathology: nonneoplastic) of 15 mg/kg-day.

As to `CCC/C=C/C=O` [(2E)-2-Hexenal], the no observed adverse effect level (NOAEL) in data set [1] (setting [3]) stood at 257 mg/kg-day.

`COc1ccc(O)c(C(C)(C)C)c1` [Butylated hydroxyanisole] yielded a no-observed-adverse-effect level (NOAEL) in data set [1] (developmental, oral, Sprague-Dawley, development) of 100 mg/kg-day. The molecule `O=C1OC(=O)C2C3C=CC(C3)C12` (stereo not drawn) [2-Norbornene-5,6-dicarboxylic anhydride] came in with an NOAEL in data set [1] (subchronic, duration: 90 days, oral, gavage, M/F, body weight) of 250 mg/kg-day. In the case of `CCCCCCCCCCCC(=O)N[C@@H](CCCN=C(N)N)C(=O)OCC.Cl` [Ethyl-N2-dodecanoyl-L-argininate hydrochloride], the NOAEL in data set [1] (subchronic, duration: 13 weeks, oral, M/F, Sprague-Dawley, clinical chemistry) was determined as 47 mg/kg-day. In data set [1] (chronic, duration: 14 weeks), `CCOc1cc(C=O)ccc1O` [3-Ethoxy-4-hydroxybenzaldehyde] gave an NOAEL of 500 mg/kg-day.

Molecule `CC(C=O)c1ccccc1` (stereo not drawn) [Hydratropaldehyde] yielded an NOAEL in data set [1] (chronic, duration: 15 weeks, oral, gavage, M/F, organ weight) of 50 mg/kg-day. `NCC(=O)[O-].NCC(=O)[O-].[Fe+2]` [Ferrous bisglycinate] had an LD50 in data set [1] (acute, oral, M/F, mortality) of 2800 mg/kg-day. The no observed adverse effect level (NOAEL) in data set [1] (subchronic, duration: 13 weeks, oral, Sprague-Dawley, no effects) is 500 mg/kg-day.

As for `CCSC(C)=O` [S-Ethyl thiolacetate], the NOEL in data set [1] (subchronic, duration: 13 weeks, oral, diet) came out at 6.5 mg/kg-day. In turn, `CSc1ccccc1` [Benzene, (methylthio)-] came in with an NOAEL in data set [1] (setting [6]) of 0.43 mg/kg-day.

`C[n+]1cccc(C(=N)[O-])c1.Cl`: in data set [1] (chronic, duration: 91 days, oral, gavage, M/F, clinical chemistry), the no-observed-adverse-effect level (NOAEL) is 250 mg/kg-day. Molecule `CC(=O)OC1(C)CCCC(C)(C)C12CCC(C)O2` (stereo not drawn) [6-Acetoxydihydrotheaspirane] returned an NOAEL in data set [1] (subchronic, duration: 90 days, oral, diet, M/F, Crj:CD, food efficiency) of 52 mg/kg-day. `O=Cc1ccc2c(c1)OCO2` [Piperonal] had an NOAEL in data set [1] (chronic, duration: 2 years) of 250 mg/kg-day. As to `CC1(O)CSC(C)(O)CS1` (stereo not drawn) [2,5-Dimethyl-1,4-dithiane-2,5-diol], the no observed adverse effect level (NOAEL) in data set [1] (setting [4]) stood at 3.14 mg/kg-day. As to `CCN(Cc1cccc(S(=O)(=O)[O-])c1)c1ccc(C(=C2C=CC(=[N+](CC)Cc3cccc(S(=O)(=O)[O-])c3)C=C2)c2ccccc2S(=O)(=O)[O-])cc1.[Na+].[Na+]` [FD&C Blue No. 1], the no observed adverse effect level (NOAEL) in data set [1] (chronic, duration: 30 months, oral, diet, M/F, mortality) was determined as 631 mg/kg-day; in data set [1] (chronic, other), 631 mg/kg-day. In data set [1] (subchronic, duration: 90 days, oral, diet, M/F, Crj:CD, clinical chemistry), `O=C(/C=C/C=C/c1ccc2c(c1)OCO2)N1CCCCC1` [Piperine] showed an NOAEL of 5 mg/kg-day. For `COc1ccc(COC(C)=O)cc1` [4-Methoxybenzyl acetate], the NOAEL in data set [1] (setting [5]) is 20 mg/kg-day. As to `CCC(=O)CC(C)CC` (stereo not drawn) [5-Methyl-3-heptanone], the NOAEL stood at 82 mg/kg-day in data set [1] (subchronic, duration: 13 weeks, oral, gavage, M, Sprague-Dawley, behavior); 82 mg/kg-day in data set [1] (subchronic, duration: 13 weeks, oral, gavage, M, Sprague-Dawley, clinical signs); 82 mg/kg-day in data set [1] (subchronic, duration: 13 weeks, oral, gavage, M, behavior); 82 mg/kg-day in data set [1] (subchronic, duration: 13 weeks, oral, gavage, M, neurology). `COC(=O)c1cc(Cl)ccc1Cl` [Methyl 2,5-dichlorobenzoate] displayed an NOAEL in data set [1] (short-term, duration: 28 days, oral, clinical signs) of 100 mg/kg-day.

Turning to `CN(C)CC(=O)O.[H-].[Na+]` [Sodium N,N-dimethylglycinate], in data set [2] (subchronic, duration: 39 days, M/F, food consumption), the LEL was 10000 mg/kg-day. With `CCCCCC1CC=CC(=O)O1` (stereo not drawn) [6-Pentyl-5,6-dihydro-2H-pyran-2-one], the no observed adverse effect level (NOAEL) in data set [1] (subchronic, duration: 90 days) was determined as 12.1 mg/kg-day.

`CS(C)=O` [Dimethyl sulfoxide] came in with a no observed adverse effect level (NOAEL) in data set [1] (repeat dose other, oral, gavage, F, no effects) of 1000 mg/kg-day. The molecule `O=C(O)c1cc(=O)[nH]c(=O)[nH]1` [Orotic acid] yielded an NOAEL in data set [1] (chronic, duration: 20 weeks, oral, diet, histopathology: neoplastic) of 50 mg/kg-day. `[Na+].[Na+].[O-]B1OB2OB([O-])OB(O1)O2` [Sodium tetraborate (Na2B4O7)] displayed a no-observed-adverse-effect level (NOAEL) in data set [1] (developmental, duration: 20 days, F, Sprague-Dawley, development) of 55 mg/kg-day. Consider `CC(C)(c1ccc(OCC2CO2)cc1)c1ccc(OCC2CO2)cc1` (stereo not drawn) [Bisphenol A diglycidyl ether], for which, in data set [1] (chronic, duration: 2 years, oral, gavage, M/F, Fischer 344, organ weight), the NOAEL is 15 mg/kg-day. As to `CSc1cnccn1` [Pyrazinyl methyl sulfide], the no-observed-adverse-effect level (NOAEL) in data set [1] (setting [3]) stood at 1.63 mg/kg-day. `C[N+](C)(C)[C@@H](Cc1c[nH]c(=S)[nH]1)C(=O)[O-]` [Ergothioneine] yielded an NOEL in data set [1] (reproduction developmental, duration: 13 weeks, oral, diet, M/F, Sprague-Dawley, no effects) of 725 mg/kg-day. This molecule also registered a no observed adverse effect level (NOAEL) in data set [1] (short-term, duration: 28 days, oral, gavage, M/F, Sprague-Dawley, hematological) of 800 mg/kg-day. As to `C=CC(C)(O)CCC=C(C)C` (stereo not drawn) [Linalool], in data set [1] (short-term, duration: 28 days, oral, M/F, histopathology: nonneoplastic), the no observed adverse effect level (NOAEL) amounted to 117 mg/kg-day.

Take `COc1cc(S(=O)(=O)[O-])c(C)cc1N=Nc1c(O)ccc2cc(S(=O)(=O)[O-])ccc12.[Na+].[Na+]`: the NOAEL in data set [1] (chronic, oral, M/F, body weight) turned out to be 701 mg/kg-day; in data set [1] (developmental, M, development), 701 mg/kg-day; in data set [1] (reproduction developmental, growth), 695 mg/kg-day; in data set [1] (reproduction developmental, oral, M/F, growth) it was 695 mg/kg-day. On to `Cc1nc2cccc(OCC(C)(C)C(=O)NC(C)C)c2c(N)c1C(=O)O`, for which the NOAEL is 1000 mg/kg-day in data set [1] (reproduction developmental, oral, gavage, F, Crj:CD, no effects) and 100 mg/kg-day in data set [1] (subchronic, duration: 13 weeks, oral, diet, M/F, Crj:CD, no effects). `Cc1sc2nc(=O)[nH]c(N)c2c1C.Cl` returned an NOAEL in data set [1] (subchronic, duration: 13 weeks, oral, diet, M/F, Sprague-Dawley, no effects) of 60 mg/kg-day. `C=CC(=C)CCC=C(C)C` [Myrcene] returned an NOAEL in data set [1] (setting [4]) of 44 mg/kg-day. In data set [1] (reproduction developmental, oral, F, histopathology: nonneoplastic), `CCCCOC(=O)c1ccccc1C(=O)OCCCC` [Dibutyl 1,2-benzenedicarboxylate] registered an LOAEL of 2 mg/kg-day. In turn, `C=CCc1cc(OC)c(O)c(OC)c1` [4-Allyl-2,6-dimethoxyphenol] returned an NOAEL in data set [1] (subchronic, duration: 90 days, clinical chemistry) of 300 mg/kg-day.

With `NCCCC[C@H](N)C(=O)O.O=S(=O)(O)O` [L-Lysine sulphate], the LEL in data set [1] (subchronic, duration: 90 days, oral, gavage, M/F, Sprague-Dawley, histopathology: neoplastic) amounted to 1000 mg/kg-day. `Cc1occc1SSc1ccoc1C` [Bis(2-methyl-3-furyl)disulfide]: the no-observed-adverse-effect level (NOAEL) stood at 0.45 mg/kg-day in data set [1] (subchronic, duration: 90 days, oral, diet, M/F, Wistar, no effects) and 0.45 mg/kg-day in data set [1] (subchronic, duration: 90 days, oral, diet, Wistar, no effects). In the case of `C=CCCN=C=S` [3-Butenyl isothiocyanate], the no-observed-adverse-effect level (NOAEL) in data set [1] (chronic, duration: 721 days, oral, gavage, M/F, histopathology: neoplastic) was determined as 12 mg/kg-day. In data set [1] (subchronic, duration: 49 days, oral, gavage, histopathology: nonneoplastic), `COc1ccccc1C=O` [2-Methoxybenzaldehyde] yielded an NOAEL of 10 mg/kg-day.
